Measurements as given in ChEMBL document CHEMBL1125487, “Acetazolamide-like carbonic anhydrase inhibitors with topical ocular hypotensive activity” (J Med Chem, 1992).
In brackets after ≈: the same amount, converted by molar mass.

Tests used:
Oryctolagus cuniculus [1] = species: Oryctolagus cuniculus; test: Effect on intraocular pressure in left eye was tested by using transition ocular hypertension model at basal condition; format: functional
Oryctolagus cuniculus [2] = test: Effect on intraocular pressure in right eye was tested by using transition ocular hypertension model at 0 min (after 4 hr administration); format: functional
Oryctolagus cuniculus [3] = species: Oryctolagus cuniculus; test: Effect on intraocular pressure in left eye was tested by using transition ocular hypertension model at 0 min.; format: functional
Oryctolagus cuniculus [4] = test: Effect on intraocular pressure in right eye was tested by using transition ocular hypertension model at basal condition (after 8 hr administration); format: functional
Oryctolagus cuniculus [5] = test: Effect on intraocular pressure in left eye was tested by using transition ocular hypertension model at 40 min. (after 4 hr administration); format: functional
Oryctolagus cuniculus [6] = test: Effect on intraocular pressure in left eye was tested by using transition ocular hypertension model at 20 min. (after 4 hr administration); format: functional
Oryctolagus cuniculus [7] = species: Oryctolagus cuniculus; test: Effect on intraocular pressure in right eye was tested by using transition ocular hypertension model at basal condition; format: functional
Oryctolagus cuniculus [8] = species: Oryctolagus cuniculus; test: Effect on intraocular pressure in right eye was tested by using transition ocular hypertension model at 0 min.; format: functional
Oryctolagus cuniculus [9] = test: Effect on intraocular pressure in right eye was tested by using transition ocular hypertension model at 40 min. (after 8 hr administration); format: functional
Oryctolagus cuniculus [10] = species: Oryctolagus cuniculus; test: Effect on intraocular pressure in left eye was tested by using transition ocular hypertension model at 20 min.; format: functional
Oryctolagus cuniculus [11] = test: Effect on intraocular pressure in left eye was tested by using transition ocular hypertension model at basal condition (after 8 hr administration); format: functional
Oryctolagus cuniculus [12] = species: Oryctolagus cuniculus; test: Effect on intraocular pressure in left eye was tested by using transition ocular hypertension model at 40 min.; format: functional
Oryctolagus cuniculus [13] = test: Effect on intraocular pressure in right eye was tested by using transition ocular hypertension model at 20 min. (after 8 hr administration); format: functional
Oryctolagus cuniculus [14] = test: Effect on intraocular pressure in right eye was tested by using transition ocular hypertension model at 10 min. (after 4 hr administration); format: functional
Oryctolagus cuniculus [15] = test: Effect on intraocular pressure in right eye was tested by using transition ocular hypertension model at basal condition (after 4 hr administration); format: functional
Oryctolagus cuniculus [16] = test: Effect on intraocular pressure in left eye was tested by using transition ocular hypertension model at 10 min. (after 8 hr administration); format: functional
Oryctolagus cuniculus [17] = test: Effect on intraocular pressure in left eye was tested by using transition ocular hypertension model at 0 min. (after 4 hr administration); format: functional
Oryctolagus cuniculus [18] = species: Oryctolagus cuniculus; test: Effect on intraocular pressure in right eye was tested by using transition ocular hypertension model at 40 min.; format: functional
Oryctolagus cuniculus [19] = test: Effect on intraocular pressure in right eye was tested by using transition ocular hypertension model at 10 min. (after 8 hr administration); format: functional
physchem = details: phosphate buffer
Description: Solubility (in phosphate buffer)

Oryctolagus cuniculus [20] = test: Effect on intraocular pressure in left eye was tested by using transition ocular hypertension model at basal condition (after 4 hr administration); format: functional
Oryctolagus cuniculus [21] = test: Effect on intraocular pressure in right eye was tested by using transition ocular hypertension model at 20 min. (after 4 hr administration); format: functional
Oryctolagus cuniculus [22] = species: Oryctolagus cuniculus; test: Effect on intraocular pressure in right eye was tested by using transition ocular hypertension model at 10 min.; format: functional
Oryctolagus cuniculus [23] = species: Oryctolagus cuniculus; test: Effect on intraocular pressure in right eye was tested by using transition ocular hypertension model at 20 min.; format: functional
Oryctolagus cuniculus [24] = test: Effect on intraocular pressure in left eye was tested by using transition ocular hypertension model at 40 min. (after 8 hr administration); format: functional
Oryctolagus cuniculus [25] = test: Effect on intraocular pressure in left eye was tested by using transition ocular hypertension model at 10 min. (after 4 hr administration); format: functional
Oryctolagus cuniculus [26] = test: Effect on intraocular pressure in right eye was tested by using transition ocular hypertension model at 40 min. (after 4 hr administration); format: functional
Oryctolagus cuniculus [27] = test: Effect on intraocular pressure in left eye was tested by using transition ocular hypertension model at 0 min. (after 8 hr administration); format: functional
Oryctolagus cuniculus [28] = species: Oryctolagus cuniculus; test: Effect on intraocular pressure in left eye was tested by using transition ocular hypertension model at 10 min.; format: functional
Oryctolagus cuniculus [29] = test: Effect on intraocular pressure in right eye was tested by using transition ocular hypertension model at 0 min (after 8 hr administration); format: functional
Oryctolagus cuniculus [30] = test: Effect on intraocular pressure in left eye was tested by using transition ocular hypertension model at 20 min. (after 8 hr administration); format: functional

## NS(=O)(=O)c1nnc(NC(=O)CCC(=O)O)s1
Oryctolagus cuniculus [1]
  IOP: 15.5 mmHg
Oryctolagus cuniculus [2]
  IOP: 13.33 mmHg
Oryctolagus cuniculus [3]
  IOP: 15.5 mmHg
Oryctolagus cuniculus [4]
  IOP: 15.67 mmHg
Oryctolagus cuniculus [5]
  IOP: 18.83 mmHg
Oryctolagus cuniculus [6]
  IOP: 22 mmHg
Oryctolagus cuniculus [7]
  IOP: 15.67 mmHg
Oryctolagus cuniculus [8]
  IOP: 14.33 mmHg
Oryctolagus cuniculus [9]
  IOP: 16.5 mmHg
Oryctolagus cuniculus [10]
  IOP: 21.67 mmHg
Oryctolagus cuniculus [11]
  IOP: 15.67 mmHg
Oryctolagus cuniculus [12]
  IOP: 19 mmHg
Oryctolagus cuniculus [13]
  IOP: 18.67 mmHg
Oryctolagus cuniculus [14]
  IOP: 18.5 mmHg
Oryctolagus cuniculus [15]
  IOP: 15.5 mmHg
Oryctolagus cuniculus [16]
  IOP: 26.17 mmHg
Oryctolagus cuniculus [17]
  IOP: 15.33 mmHg
Oryctolagus cuniculus [18]
  IOP: 15.67 mmHg
Oryctolagus cuniculus [19]
  IOP: 22.23 mmHg
physchem
  solubility: 60.7 mM (≈ 17 mg/mL)
Oryctolagus cuniculus [20]
  IOP: 15.5 mmHg
Oryctolagus cuniculus [21]
  IOP: 18.33 mmHg
Oryctolagus cuniculus [22]
  IOP: 19.33 mmHg
Oryctolagus cuniculus [23]
  IOP: 17.17 mmHg
Oryctolagus cuniculus [24]
  IOP: 18.67 mmHg
Oryctolagus cuniculus [25]
  IOP: 25.83 mmHg
Oryctolagus cuniculus [26]
  IOP: 16.33 mmHg
Oryctolagus cuniculus [27]
  IOP: 15.67 mmHg
Oryctolagus cuniculus [28]
  IOP: 26 mmHg
Oryctolagus cuniculus [29]
  IOP: 14.83 mmHg
Oryctolagus cuniculus [30]
  IOP: 21.5 mmHg
